The source made the active and inactive calls. No cut-off for these calls is given here.
Key:
Mus musculus [1] = experiment: Anticonvulsant activity in ip dosed Mus musculus Swiss albino (mouse) assessed as protection against maximal electroshock-induced seizures after 4 hr; format: functional; details: read-out: MED
Mus musculus [2] = experiment: Neurotoxicity in ip dosed Mus musculus Swiss albino (mouse) assessed as minimal motor impairment after 0.5 hr by rotorod test; format: toxicity, organism-based; details: in vivo
Mus musculus [3] = experiment: Anticonvulsant activity in ip dosed Mus musculus Swiss albino (mouse) assessed as protection against subcutaneous pentylenetetrazole-induced seizures after 0.5 hr; format: functional; details: read-out: MED
Mus musculus [4] = experiment: Anticonvulsant activity in ip dosed Mus musculus Swiss albino (mouse) assessed as protection against subcutaneous pentylenetetrazole-induced seizures after 4 hr; format: functional; details: read-out: MED
Mus musculus [5] = experiment: Neurotoxicity in Mus musculus Swiss albino (mouse) assessed as potentiation of ethanol-mediated effect at 100 to 300 mg/kg, ip administered 1 hr followed by ethanol challenge; format: toxicity, organism-based; design: dose 100-300 mg/kg, route intraperitoneal; details: in vivo
Mus musculus [6] = experiment: Neurotoxicity in ip dosed Mus musculus Swiss albino (mouse) assessed as minimal motor impairment after 4 hr by rotorod test; format: toxicity, organism-based; details: in vivo
Mus musculus [7] = experiment: Anticonvulsant activity in ip dosed Mus musculus Swiss albino (mouse) assessed as protection against maximal electroshock-induced seizures after 0.5 hr; format: functional; details: read-out: MED
Mus musculus [8] = experiment: Anticonvulsant activity in Mus musculus Swiss albino (mouse) assessed as protection against subcutaneous pentylenetetrazole-induced seizures at 300 mg/kg, ip after 0.5 hr; format: functional, organism-based; design: dose 300 mg/kg
Mus musculus [9] = experiment: Anticonvulsant activity in Mus musculus Swiss albino (mouse) assessed as protection against subcutaneous pentylenetetrazole-induced seizures at 300 mg/kg, ip after 4 hr; format: functional, organism-based; design: dose 300 mg/kg
Mus musculus [10] = experiment: Anticonvulsant activity in Mus musculus Swiss albino (mouse) assessed as protection against maximal electroshock-induced seizures at 300 mg/kg, ip after 4 hr; format: functional, organism-based; design: dose 300 mg/kg
Mus musculus [11] = experiment: Neurotoxicity in Mus musculus Swiss albino (mouse) assessed as minimal motor impairment at 300 mg/kg, ip after 4 hr by rotorod test; format: toxicity, organism-based; design: dose 300 mg/kg, route intraperitoneal; details: in vivo
Rattus norvegicus [12] = experiment: Anticonvulsant activity in Rattus norvegicus Wistar (rat) assessed as increase in GABA level in cerebellum region measured per 100 mg of tissue at 100 mg/kg, ip after 2 hr (reference value: 25.27 +/- 0.57 ug); format: functional; details: route intraperitoneal
[13] = Lipophilicity, log P of the compound; format: physicochemical; details: octanol/water
Rattus norvegicus [14] = experiment: Anticonvulsant activity in Rattus norvegicus Wistar (rat) assessed as increase in GABA level in olfactory lob region measured per 100 mg of tissue at 100 mg/kg, ip after 2 hr (reference value: 13.22 +/- 0.03 ug); format: functional; details: route intraperitoneal
Rattus norvegicus [15] = experiment: Anticonvulsant activity in Rattus norvegicus Wistar (rat) assessed as increase in GABA level in mid brain region measured per 100 mg of tissue at 100 mg/kg, ip after 2 hr (reference value: 44.38 +/- 0.219 ug); format: functional; details: route intraperitoneal
Rattus norvegicus [16] = experiment: Anticonvulsant activity in Rattus norvegicus Wistar (rat) assessed as increase in GABA level in medulla oblongata region measured per 100 mg of tissue at 100 mg/kg, ip after 2 hr (reference value: 40.57 +/- 0.2 ug); format: functional; details: route intraperitoneal
Mus musculus [17] = experiment: Neurotoxicity in Mus musculus Swiss albino (mouse) assessed as minimal motor impairment at 300 mg/kg, ip after 0.5 hr by rotorod test; format: toxicity, organism-based; design: dose 300 mg/kg, route intraperitoneal; details: in vivo

Structure (SMILES) | minimal effective dose (Mus musculus [1]) [mg/kg] | MTC (Mus musculus [2]) [mg/kg] | minimal effective dose (Mus musculus [3]) [mg/kg] | minimal effective dose (Mus musculus [4]) [mg/kg] | Activity (Mus musculus [5]) | MTC (Mus musculus [6]) [mg/kg] | minimal effective dose (Mus musculus [7]) [mg/kg] | Activity (Mus musculus [8]) | Activity (Mus musculus [9]) | Activity (Mus musculus [10]) | Activity (Mus musculus [11]) | Activity (Rattus norvegicus [12]) [µg] | logP [13] | Activity (Rattus norvegicus [14]) [µg] | Activity (Rattus norvegicus [15]) [µg] | Activity (Rattus norvegicus [16]) [µg] | Activity (Mus musculus [17])
CCCCNC(=S)N1CCC(CC2Cc3cc(OC)c(OC)cc3C2=O)CC1 (stereo not drawn) | 100 | 300 | 100 | 300 | Non-toxic | 300 | 100 |  |  |  |  |  |  |  |  |  | 
O=C1NC(=O)C(c2ccccc2)(c2ccccc2)N1 [PHENYTOIN] | 30 | 100 |  |  |  | 100 | 30 | inactive | inactive |  |  |  |  |  |  |  | 
COc1cc2c(cc1OC)C(=O)C(CC1CCN(C(=S)Nc3ccccc3C)CC1)C2 (stereo not drawn) |  | 100 | 300 |  | Non-toxic | 300 | 100 |  | inactive | inactive |  |  |  |  |  |  | 
COc1cc2c(cc1OC)C(=O)C(CC1CCN(C(=S)Nc3ccccc3Cl)CC1)C2 (stereo not drawn) | 300 | 300 | 300 | 300 | Toxic |  | 100 |  |  |  | Non-toxic |  |  |  |  |  | 
COc1cc2c(cc1OC)C(=O)C(CC1CCN(C(=S)Nc3ccc(C)cc3)CC1)C2 (stereo not drawn) | 100 | 300 | 100 | 300 |  |  | 30 |  |  |  | Non-toxic | 31.83 | 4.58 | 15.62 | 61.05 | 49.82 | 
NC(=O)N1c2ccccc2C=Cc2ccccc21 [CARBAMAZEPINE] | 100 | 300 | 300 | 100 |  |  | 30 |  |  |  | Non-toxic |  |  |  |  |  | 
COc1cc2c(cc1OC)C(=O)C(CC1CCN(C(=S)Nc3cccc(C)c3)CC1)C2 (stereo not drawn) |  |  |  |  |  |  | 300 |  |  | inactive |  |  |  |  |  |  | 
COc1cc2c(cc1OC)C(=O)C(CC1CCN(C(=S)Nc3ccc(Cl)cc3)CC1)C2 (stereo not drawn) | 100 | 100 | 100 | 300 | Non-toxic | 300 | 30 |  |  |  |  | 27.66 | 5.11 | 13.47 | 44.81 | 40.75 | 
COc1cc2c(cc1OC)C(=O)C(CC1CCN(C(=S)Nc3ccccc3)CC1)C2 (stereo not drawn) | 300 | 300 | 100 | 300 |  |  | 100 |  |  |  | Non-toxic |  |  |  |  |  | 
COc1cc2c(cc1OC)C(=O)C(CC1CCN(C(=S)Nc3cccc([N+](=O)[O-])c3)CC1)C2 (stereo not drawn) |  |  |  |  |  |  | 300 |  |  | inactive |  |  |  |  |  |  | 
COc1cc2c(cc1OC)C(=O)C(CC1CCN(C(=S)Nc3ccccc3[N+](=O)[O-])CC1)C2 (stereo not drawn) | 300 |  |  |  |  | 300 | 100 | inactive | inactive |  |  |  |  |  |  |  | Non-toxic
COc1cc2c(cc1OC)C(=O)C(CC1CCN(C(=S)Nc3ccc([N+](=O)[O-])cc3)CC1)C2 (stereo not drawn) | 300 | 300 | 100 |  | Non-toxic |  | 30 |  | inactive |  | Non-toxic | 28.06 | 4.58 | 15.71 | 59.33 | 35.13 | 
CCCNC(=S)N1CCC(CC2Cc3cc(OC)c(OC)cc3C2=O)CC1 (stereo not drawn) | 300 | 300 |  | 300 | Non-toxic |  | 100 | inactive |  |  | Non-toxic |  |  |  |  |  | 
COc1cc2c(cc1OC)C(=O)C(CC1CCN(C(=S)Nc3cccc(Cl)c3)CC1)C2 (stereo not drawn) |  |  |  |  |  |  | 300 |  |  | inactive |  |  |  |  |  |  | 

From ChEMBL document CHEMBL3045936, “Synthesis of new piperidyl indanone derivatives as anticonvulsant agents” (Med Chem Res, 2012)
